# In patent US20250382589A1, “SYNTHETIC OPERONS FOR THE PRODUCTION OF 2-MERCAPTOETHANE SULFONATE (COENZYME M) AND METHODS OF USING THE SAME” (priority 2024, published 2025):
# “And” between values parts separate entries of the source, which are not always exact repeats. Equal entries are not always repeated.
# B1: MA3299: coenzyme M synthase (ComF) of Methanosarcina acetivorans, SEQ ID NO: 1 (protein)
# chain: MNGALDNTEKPRTIQEIQVKIDAGEAVVLTAEEIGAKVRAGGEIRLEDIDVVTTATRGIMSGTYAVFSFKVSEPDSFVKASKVLLNGVPAIVGPCPNERLGVLDLIVLGTAHSETDSRYGGGHLFRDMVEGKSITVDVTTSVGDFFSVETRLSEMPFARLYATRHAFKNYRAFVNPGKESIKTIFHALPFEGEFRELTFCGCGELNPIQNDPKLETIGIGTRVLINGAEGFVTGQGTRSAPDNPNLTGFADLHDMTPEYMGGFVTSAGPEIVNTWAVPIPVLSREMLENILQLDSQIPLKLVDLAGRLPLCEITYGDVWDNTDLSVKYEPEKCIDCKICCVAEACPMGAVSKGENGAVHNPELCFNCGLCISRCKGEAFSAKLGTVSCAVGGCFRDIKVTLRQSDRARAVKAAEELKAQVLSGKFRLKEPVEKISWRE
# modifications: Methanosarcina acetivorans
# B2: Q9APM5: taurine-pyruvate aminotransferase from Bilophila wadsworthia, SEQ ID NO: 3 (protein, listed as Bilophila wadsworthia)
# chain: MTYDKAELVALDKKYVWHHLTQHKNFEPAIYVKGEGMRITDIDGKTYLDAVSGGVWTVNVGYGRKEIVDAVAKQMMEMCYFANGIGNVPTIKFSEKLISKMPGMSRVYLSNSGSEANEKAFKIVRQIGQLKHGGKKTGILYRARDYHGTTIGTLSACGQFERKVQYGPFAPGFYEFPDCDVYRSKFGDCADLGVKMAKQLEEVILTVGPDELGAVIVEPMTAGGGILVPPAGYYETIREICDKYELLLIIDEVVCGLGRTGKWFGYQHFNVQPDIVTMAKGVASGYAPISCTVTTEKVFQDFVNDPADTDAYFRDISTFGGCTSGPAAALANIEIIERENLLENCTKMGDRLLEGLKGLMAKHPIIGDVRGKGLFAGIEIVKDRATKEPIAEAVANAMVGAAKQAGVLIGKTSRSFREFNNTLTLCPALIATEADIDEIVAGIDKAFTTVEQKFGL
# Key:
# [1] = tested on: E. coli K-12 ΔtauD; assay: Chronic oxidative stress assay (cumene hydroperoxide, 96-well growth); format: cell-based, Escherichia coli; conditions: taurine supplied
# Procedure: Chronic oxidative stress assay. Cultures were prepared according to the procedure outlined in the Acute Stress Assay method above. Cultures were normalized to 0.1 OD600 and 4.5 mL defined medium was inoculated (1:10) and gently mixed. Cultures (148 μL) were dispensed into each well of a sterile 96-well plate. 2 μL of either H2O or […] CuHO2 was added to designated wells.
# Observed increases in the doubling times of com^syn expressing cells are expected as these cultures are being tasked with recombinantly producing enzymes which the vector-only control carrying cells are not (FIG. 8d).
# As CoM is a thiol with proposed antioxidant qualities, we tested the ability of operon 3 to protect E. coli from oxidative stress. ΔtauD K-12 E. coli were made kanamycin sensitive through the use of the pCP20 plasmid and given a T7 Polymerase using a λDE3 Lysogenization Kit (Novagen). […] Expression of operon 3 was induced for 2 hours using 100 μM IPTG and cultures were incubated with 100 μM taurine for 70 minutes before being used as inoculum in a 96 well plate with cumene hydroperoxide. Optical density (OD) measurements at 600 nm were taken every 6 minutes for 17.5 hours using a Tecan Microplate Reader. A Kirby-Bauer assay was developed which examined the zone of clearing around sterile absorption disks dosed with 5 μL 2.45M hydrogen peroxide.
# [2] = tested on: E. coli K-12 wild-type and ΔtauD; format: cell-based, Escherichia coli; conditions: for growth when plated with 2 mM: 2 mM on plates
# Procedure: Uptake of exogenous CoM by E. coli. To determine whether E. coli could catabolize CoM, wild-type (NB506) and ΔtauD (NB510) E. coli K-12 strains were tested for the ability to use CoM, cysteine, and taurine as sole sulfur source on M9 minimal medium lacking sulfur (—S) agar plates after washing to reduce nutrient carryover. E. coli strains were streaked on LB agar (1.5%) plates and used to inoculate 3 mL defined medium (Table 7) then incubated at 35° C. (16 hours, 215 rpm). Cells from 100 μL of each culture was harvested by centrifugation at 5,000×g for 3 minutes. Cells were washed three times and resuspended in 1 mL phosphate buffered saline (137 mM NaCl, 2.7 mM KCl, 10 mM Na2HPO4, 1.8 mM KH2PO4). […] Washed cultures were streaked on each agar plate and incubated at 35° C. for 63 hours before photographing.
# We assessed which catabolic pathways could be involved in a hypothetical digestion of CoM by E. coli. […] If this was the case, then the antioxidant effect of CoM may be stronger in the ΔtauD strain when compared to the wild-type strain.
# [3] = tested on: E. coli K-12 ΔtauD; assay: Acute oxidative stress assay (H2O2 disks, zone of clearing); format: cell-based, Escherichia coli; conditions: 0.1 mM taurine
# Procedure: Acute oxidative stress assay. E. coli K-12 ΔtauD (NB510) was transformed using pET24a (vector-only control, VOC) or pCH003 (com^syn) to generate strains NB515 and NB525, respectively, and grown on LB agar (1.5%) plates containing 50 μg/mL kanamycin. Cultures were grown in defined medium with kanamycin at 37° C. (10 hours, 215 rpm) then 6 mL defined medium was inoculated (1:100). This culture was incubated until OD600=0.4-0.5 then induced using 0.1 mM IPTG. After another hour of incubation, the cultures were then split into two aliquots of 2.6 mL each, given either 0.1 mM taurine or H2O, and incubated another hour. LB plates containing 0.1 mM IPTG and 0.1 mM taurine were prepared and warmed for 15 minutes at 37° C. Cultures were normalized to 0.1 OD600 and 1 mL of culture was spread on each plate. […] Zones of clearing were measured using the ImageJ program.(38) […]
# As CoM is a thiol with proposed antioxidant qualities, we tested the ability of operon 3 to protect E. coli from oxidative stress. ΔtauD K-12 E. coli were made kanamycin sensitive through the use of the pCP20 plasmid and given a T7 Polymerase using a λDE3 Lysogenization Kit (Novagen). […] Optical density (OD) measurements at 600 nm were taken every 6 minutes for 17.5 hours using a Tecan Microplate Reader. […]
# [4] = tested on: wild-type E. coli K12; assay: Oxidative stress assay after preincubation with CoM (cumene hydroperoxide); format: cell-based, Escherichia coli
# Source text: After having established that E. coli can use CoM as a sulfur source when grown on sulfur-free media, we tested if exogenously supplied CoM could mitigate oxidative stress. […] Protection from oxidative stress remained consistent as the concentration of CuHO2 increased (FIG. 19b). Exponential and logarithmic regression analyses were applied to the lag times of −CoM and +CoM cultures under CuHO2 stress (FIG. 33). These regression curves and their associated equations calculate that the lag time for +CoM E. coli subjected to 65 μM CuHO2 is equivalent to the lag time of −CoM E. coli subjected to ˜50 μM CuHO2.
# [5] = tested on: E. coli K-12 ΔtauD; assay: as above
# [6] = tested on: CoM synthesis from pyruvate and taurine; assay: CoM biosynthesis assay in E. coli lysate; format: biochemical, Escherichia coli
# Procedure: CoM biosynthesis assay. To improve expression of comF, pCH003 was transformed into BL21 E. coli along with pDB1282, graciously provided by Squire J. Booker (Penn State University).(36) This strain was grown in 25 mL defined medium overnight at 37° C. (250 rpm); this was used to inoculate 975 mL defined medium and continued growth at 37° C. (250 rpm). At OD600=0.3 of the culture was supplemented with 2% L-arabinose, 2 mL 1 M cysteine HCl (2 mM), […] iron (II) sulfate (1 mM), and […] ferric ammonium sulfate (1 mM) then returned to incubation. After 1 hour the culture was induced using 0.1 mM IPTG, incubated for 3 hours, pelleted at 8,000×g (10 minutes, 4° C.), and stored at −80° C. until analysis. A portion of the cell pellet was lysed as described above and the presence of ComF and Tpa was confirmed by immunoblotting using a 8-16% polyacrylamide gel with the initial electrophoresis changed to 50 V (25 minutes) followed by 100 V (105 minutes) and transferred using constant 0.11 A (50 minutes). […] Samples were aspirated into a luer slip tip syringe and filtered through a 0.2 μm, 13 mm diameter polyethersulfone (PES) membrane into fresh amber autosampler vials then stored at 4° C. in the dark until analyzed by high-performance liquid chromatography (HPLC) using an UltiMate 3000 (Thermo Scientific, Waltham, MA). […]
molecule,measurement,setting,value
NCCS(=O)(=O)O [taurine],lag time of vector-only control cells,[1],lag time increased
same,lag time of vector-only control cells,[1]; listed as SC,increases
same,growth when plated with 2 mM,[2],Inhibitory growth
same,growth with the substance as sulfur source,"[2]; M9 (—S) agar plates, 100 μM",grew poorly
same,zone of clearing of Empty Vector strain,[3],increase in the average zone of clearing size
"N[C@@H](CS)C(=O)O [Cys, cysteine]",growth when plated with 2 mM,[2],no growth defects
"O=S(=O)(O)CCS [CoM, 2-mercaptoethanesulfonate]",CuHO2 concentration giving the same lag time in −CoM culture,"[4]; +CoM at 65 μM CuHO2, regression",~50 µM and 49.73 µM
same,lag time,"[4]; +CoM, 65 μM CuHO2",6.0 h
same,lag time predicted by exponential regression,"[4]; +CoM, 65 μM CuHO2",6.313 h
same,CuHO2 mitigated,[4]; from regression of lag times,~15 µM
same,lag time,"[4]; preincubated with 100 μM CoM (+CoM), 75 μM cumene negative control, time to OD600=0.1",3.0 h
same,lag time,"[5]; +CoM, 65 μM CuHO2",4.7 h
same,CuHO2 mitigated,[5]; comparison of lag times,~20 µM
same,lag time,"[5]; preincubated with CoM, 75 μM cumene",3.5 h
same,growth when plated with 2 mM,[2],no growth defects
B1,reduction of enzymatic activity,[6]; lysate removed from the anaerobic chamber for centrifugation,~60%
B2,catalysis,[6]; enzyme alone,Catalysis was not observed
